Results published in patent publication US8765769B2, “Ring-fused 4-aminopyrimidines and use thereof as stimulators of soluable guanylate cyclases” (Bayer Intellectual Property GmbH, priority 2010, dated 2014).

How the values were obtained:
[1] = tested on: recombinant guanylate cyclase reporter cell line; assay: Effect on a recombinant guanylate cyclase reporter cell line; format: cell-based; details: recombinant guanylate cyclase reporter cell line (Wunder et al. 2005)
Method: B-2. Effect on a Recombinant Guanylate Cyclase Reporter Cell Line
The cellular action of the inventive compounds is determined on a recombinant guanylate cyclase reporter cell line as described in F. Wunder et al., Anal. Biochem. 339, 104-112 (2005).

[2] = tested on: rabbit aorta rings; assay: Vasorelaxant action in vitro (phenylephrine-contracted rabbit aorta rings); details: Oryctolagus cuniculus; concentration reducing the phenylephrine-induced contraction of rabbit aorta rings by 50%; DMSO 0.1%
Method: B-1. Vasorelaxant Action In Vitro
Rabbits are stunned by a blow to the neck and exsanguinated. The aorta is removed, freed from adhering tissue and divided into rings of width 1.5 mm, which are placed individually under prestress into 5 ml organ baths with carbogen-sparged Krebs-Henseleit solution at 37° C. having the following composition (each mM): sodium chloride 119; potassium chloride: 4.8; calcium chloride dihydrate: 1; magnesium sulfate heptahydrate: 1.4; potassium dihydrogenphosphate: 1.2; sodium hydrogencarbonate: 25; glucose: 10. The contractile force is determined with Statham UC2 cells, amplified and digitalized using A/D transducers (DAS-1802 HC, Keithley Instruments Munich), and recorded in parallel on linear recorders. To obtain a contraction, phenylephrine is added to the bath cumulatively in increasing concentration. After several control cycles, the substance to be studied is added in increasing dosage each time in every further run, and the magnitude of the contraction is compared with the magnitude of the contraction attained in the last preceding run. This is used to calculate the concentration needed to reduce the magnitude of the control value by 50% (IC50 value). The standard administration volume is […]; the DMSO content in the bath solution corresponds to 0.1%.

`CC1(C)C(=O)Nc2nc(-c3nn(Cc4ccccc4F)c4ncccc34)nc(N)c21` [Example 2, 4-amino-2-[1-(2-fluorobenzyl)-1H-pyrazolo[3,4-b]pyridin-3-yl]-5,5-dimethyl-5,7-dihydro-6H-pyrrolo[2,3-d]pyrimidin-6-one] was tested, and the “MEC (minimal effective concentration)” value [1] was 0.001 µM and the IC50 [2] was 48 nM.
`CC1(C)C(=O)Nc2nc(-c3nn(Cc4ccccc4F)c4ncc(F)cc34)nc(N)c21` [Example 3, 4-amino-2-[5-fluoro-1-(2-fluorobenzyl)-1H-pyrazolo[3,4-b]pyridin-3-yl]-5,5-dimethyl-5,7-dihydro-6H-pyrrolo[2,3-d]pyrimidin-6-one] was tested, and the “MEC (minimal effective concentration)” value [1] was 0.001 µM and the IC50 [2] was 9.3 nM.
With `Nc1nc(-c2nn(Cc3ccccc3F)c3ncccc23)nc2c1C1(CCOC1)C(=O)N2` (stereo not drawn) [Example 4, 4′-amino-2′-[1-(2-fluorobenzyl)-1H-pyrazolo[3,4-b]pyridin-3-yl]-4,5-dihydrospiro[furan-3,5′-pyrrolo[2,3-d]pyrimidine]-6′(7′H)-one] the “MEC (minimal effective concentration)” value [1] was 0.003 µM and the IC50 [2] was 24 nM.
